# Data as given in ChEMBL document CHEMBL1201861, “Genomics of Drug Sensitity in Cancer screening data, Wellcome Trust Sanger Institute”.
# How the values were obtained:
# Test in all cases: cells
# Assay type in all cases: functional, cell-based, Homo sapiens
# COLO-792 = tested on: COLO-792
# Description: SANGER: Inhibition of human COLO-792 cell growth in a cell viability assay.
# COR-L23 = tested on: COR-L23;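 further: cell viability assay measuring how strongly compounds suppress growth of COR-L23 cells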
# Description: SANGER: Inhibition of human COR-L23 cell growth in a cell viability assay.
# EFO-21 = tested on: EFO-21;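 further: growth inhibition of EFO-21 cells measured with a viability assay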
# Description: SANGER: Inhibition of human EFO-21 cell growth in a cell viability assay.
# EHEB = tested on: EHEB;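 further: growth inhibition of human EHEB cells, read out with a cell viability assay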
# Description: SANGER: Inhibition of human EHEB cell growth in a cell viability assay.
# HCC1937 = tested on: HCC1937;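 further: growth inhibition measured with a cell viability read-out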
# Description: SANGER: Inhibition of human HCC1937 cell growth in a cell viability assay.
# HCT-116 = tested on: HCT-116
# Description: SANGER: Inhibition of human HCT-116 cell growth in a cell viability assay.
# HEC-1 = tested on: HEC-1;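 further: growth inhibition of the cell line, read out with a cell viability assay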
# Description: SANGER: Inhibition of human HEC-1 cell growth in a cell viability assay.
# Hs-578T = tested on: Hs-578T
# Description: SANGER: Inhibition of human Hs-578-T cell growth in a cell viability assay.
# HuO-3N1 = tested on: HuO-3N1;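 further: cell viability readout used to measure how strongly compounds suppress proliferation of human HuO-3N1 cells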
# Description: SANGER: Inhibition of human HuO-3N1 cell growth in a cell viability assay.
# KYSE-180 = tested on: KYSE-180;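 further: growth inhibition of KYSE-180 cells, read out with a cell viability assay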
# Description: SANGER: Inhibition of human KYSE-180 cell growth in a cell viability assay.
# LN-405 = tested on: LN-405
# Description: SANGER: Inhibition of human LN-405 cell growth in a cell viability assay.
# MC-CAR = tested on: MC-CAR;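 further: growth inhibition of the human MC-CAR cell line, read out by a cell viability assay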
# Description: SANGER: Inhibition of human MC-CAR cell growth in a cell viability assay.
# MCF7 = tested on: MCF7;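 further: growth inhibition of human MCF7 cells, read out with a cell viability assay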
# Description: SANGER: Inhibition of human MCF7 cell growth in a cell viability assay.
# MDA-MB-134-VI = tested on: MDA-MB-134-VI
# Description: SANGER: Inhibition of human MDA-MB-134-VI cell growth in a cell viability assay.
# MIA PaCa-2 = tested on: MIA PaCa-2;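 further: growth inhibition of MIA PaCa-2 cells, read out with a cell viability assay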
# Description: SANGER: Inhibition of human MIA-PaCa-2 cell growth in a cell viability assay.
# MKN-28 = tested on: MKN-28;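 further: cell viability assay read-out, IC50 reflects suppression of growth of human MKN-28 cells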
# Description: SANGER: Inhibition of human MKN28 cell growth in a cell viability assay.
# NB1 = tested on: NB1;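 further: reduction of NB1 cell proliferation, read out with a viability assay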
# Description: SANGER: Inhibition of human NB1 cell growth in a cell viability assay.
# NCI-H187 = tested on: NCI-H187;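 further: growth inhibition of NCI-H187 cells, read out as cell viability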
# Description: SANGER: Inhibition of human NCI-H187 cell growth in a cell viability assay.
# NCI-H2347 = tested on: NCI-H2347;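 further: growth inhibition of the cell line, read out with a cell viability assay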
# Description: SANGER: Inhibition of human NCI-H2347 cell growth in a cell viability assay.
# NCI-H292 = tested on: NCI-H292;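 further: growth inhibition of NCI-H292 cells, read out with a cell viability assay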
# Description: SANGER: Inhibition of human NCI-H292 cell growth in a cell viability assay.
# NCI-H520 = tested on: NCI-H520;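 further: growth inhibition of NCI-H520 cells, measured by a cell viability assay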
# Description: SANGER: Inhibition of human NCI-H520 cell growth in a cell viability assay.
# NCI-H522 = tested on: NCI-H522;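 further: cell viability assay measuring growth inhibition of human NCI-H522 cells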
# Description: SANGER: Inhibition of human NCI-H522 cell growth in a cell viability assay.
# NCI-H661 = tested on: NCI-H661;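 further: cell viability assay read-out, IC50 being the concentration that inhibits growth of the cells by half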
# Description: SANGER: Inhibition of human NCI-H661 cell growth in a cell viability assay.
# NUGC-3 = tested on: NUGC-3;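 further: growth inhibition of human NUGC-3 cells, read out with a cell viability assay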
# Description: SANGER: Inhibition of human NUGC-3 cell growth in a cell viability assay.
# PFSK-1 = tested on: PFSK-1;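 further: cell viability assay measuring how strongly compounds suppress growth of human PFSK-1 cells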
# Description: SANGER: Inhibition of human PFSK-1 cell growth in a cell viability assay.
# RCM-1 = tested on: RCM-1;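 further: growth inhibition of the RCM-1 line, determined with a cell viability readout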
# Description: SANGER: Inhibition of human RCM-1 cell growth in a cell viability assay.
# RERF-LC-MS = tested on: RERF-LC-MS;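 further: growth inhibition of human RERF-LC-MS cells, read out by a cell viability assay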
# Description: SANGER: Inhibition of human RERF-LC-MS cell growth in a cell viability assay.
# RL = tested on: RL
# Description: SANGER: Inhibition of human RL cell growth in a cell viability assay.
# RPMI-7951 = tested on: RPMI-7951
# Description: SANGER: Inhibition of human RPMI-7951 cell growth in a cell viability assay.
# SCC-9 = tested on: SCC-9;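 further: Read-out is a cell viability assay, with values giving inhibition of cell growth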
# Description: SANGER: Inhibition of human SCC-9 cell growth in a cell viability assay.
# SIG-M5 = tested on: SIG-M5;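 further: cell viability assay read-out, measuring how strongly growth of cultured human SIG-M5 cells is inhibited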
# Description: SANGER: Inhibition of human SIG-M5 cell growth in a cell viability assay.
# SNU-423 = tested on: SNU-423
# Description: SANGER: Inhibition of human SNU-423 cell growth in a cell viability assay.
# SNU-449 = tested on: SNU-449
# Description: SANGER: Inhibition of human SNU-449 cell growth in a cell viability assay.
# SW1417 = tested on: SW1417;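 further: growth inhibition of human SW1417 cells, read out with a cell viability assay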
# Description: SANGER: Inhibition of human SW1417 cell growth in a cell viability assay.
# SW1573 = tested on: SW1573;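 further: growth inhibition of SW1573 cells, read out with a cell viability assay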
# Description: SANGER: Inhibition of human SW1573 cell growth in a cell viability assay.
# SW1783 = tested on: SW1783;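 further: cell growth inhibition measured with a viability assay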
# Description: SANGER: Inhibition of human SW1783 cell growth in a cell viability assay.
# SW-620 = tested on: SW-620;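 further: growth inhibition of human SW-620 cells, measured by a cell viability assay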
# Description: SANGER: Inhibition of human SW620 cell growth in a cell viability assay.
# SW756 = tested on: SW756;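 further: growth inhibition of human SW756 cells, read out with a cell viability assay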
# Description: SANGER: Inhibition of human SW756 cell growth in a cell viability assay.
# SiHa = tested on: SiHa;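 further: Viability-based readout of growth inhibition in SiHa cells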
# Description: SANGER: Inhibition of human SiHa cell growth in a cell viability assay.
# 8505C = tested on: 8505C
# Description: SANGER: Inhibition of human 8505C cell growth in a cell viability assay.
# A 172 = tested on: A 172;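 further: growth inhibition of A172 cells, measured with a cell viability readout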
# Description: SANGER: Inhibition of human A172 cell growth in a cell viability assay.
# AN3-CA = tested on: AN3-CA;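 further: growth inhibition of human AN3-CA cells measured by a cell viability assay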
# Description: SANGER: Inhibition of human AN3-CA cell growth in a cell viability assay.
# C-33-A = tested on: C-33-A;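 further: cell viability assay measuring growth inhibition of C-33-A cells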
# Description: SANGER: Inhibition of human C-33-A cell growth in a cell viability assay.
# U-698-M = tested on: U-698-M
# Description: SANGER: Inhibition of human U-698-M cell growth in a cell viability assay.
# UO-31 = tested on: UO-31;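 further: cell viability assay measuring inhibition of cell growth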
# Description: SANGER: Inhibition of human U031 cell growth in a cell viability assay.
# CAMA-1 = tested on: CAMA-1;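 further: growth inhibition of CAMA-1 cells, read out with a cell viability assay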
# Description: SANGER: Inhibition of human CAMA-1 cell growth in a cell viability assay.
# CAPAN-1 = tested on: CAPAN-1;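 further: growth suppression of CAPAN-1 cells, read out by a cell viability assay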
# Description: SANGER: Inhibition of human CAPAN-1 cell growth in a cell viability assay.
# CHL-1 = tested on: CHL-1;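 further: cell growth inhibition, read out with a cell viability assay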
# Description: SANGER: Inhibition of human CHL-1 cell growth in a cell viability assay.
compound,measurement,setting,value
C=C(c1ccc(C(=O)O)cc1)c1cc2c(cc1C)C(C)(C)CCC2(C)C [BEXAROTENE],IC50,"COLO-792; Homo sapiens, COLO-792",> 8 µM
same,IC50,"COR-L23; Homo sapiens, COR-L23",> 8 µM
same,IC50,"EFO-21; Homo sapiens, EFO-21",> 8 µM
same,IC50,"EHEB; Homo sapiens, EHEB",> 8 µM
same,IC50,"HCC1937; Homo sapiens, HCC1937",> 8 µM
same,IC50,"HCT-116; Homo sapiens, HCT-116",> 8 µM
same,IC50,"HEC-1; Homo sapiens, HEC-1",> 8 µM
same,IC50,"Hs-578T; Homo sapiens, Hs-578T",> 8 µM
same,IC50,"HuO-3N1; Homo sapiens, HuO-3N1",> 8 µM
same,IC50,"KYSE-180; Homo sapiens, KYSE-180",5.03 µM
same,IC50,"LN-405; Homo sapiens, LN-405",> 8 µM
same,IC50,"MC-CAR; Homo sapiens, MC-CAR",> 8 µM
same,IC50,"MCF7; Homo sapiens, MCF7",> 8 µM
same,IC50,"MDA-MB-134-VI; Homo sapiens, MDA-MB-134-VI",> 8 µM
same,IC50,"MIA PaCa-2; Homo sapiens, MIA PaCa-2",> 8 µM
same,IC50,"MKN-28; Homo sapiens, MKN-28",> 8 µM
same,IC50,"NB1; Homo sapiens, NB1",> 8 µM
same,IC50,"NCI-H187; Homo sapiens, NCI-H187",> 8 µM
same,IC50,"NCI-H2347; Homo sapiens, NCI-H2347",> 8 µM
same,IC50,"NCI-H292; Homo sapiens, NCI-H292",> 8 µM
same,IC50,"NCI-H520; Homo sapiens, NCI-H520",> 8 µM
same,IC50,"NCI-H522; Homo sapiens, NCI-H522",> 8 µM
same,IC50,"NCI-H661; Homo sapiens, NCI-H661",> 8 µM
same,IC50,"NUGC-3; Homo sapiens, NUGC-3",> 8 µM
same,IC50,"PFSK-1; Homo sapiens, PFSK-1",> 8 µM
same,IC50,"RCM-1; Homo sapiens, RCM-1",> 8 µM
same,IC50,"RERF-LC-MS; Homo sapiens, RERF-LC-MS",> 8 µM
same,IC50,"RL; Homo sapiens, RL",> 8 µM
same,IC50,"RPMI-7951; Homo sapiens, RPMI-7951",> 8 µM
same,IC50,"SCC-9; Homo sapiens, SCC-9",> 8 µM
same,IC50,"SIG-M5; Homo sapiens, SIG-M5",< 0.0312 µM
same,IC50,"SNU-423; Homo sapiens, SNU-423",> 8 µM
same,IC50,"SNU-449; Homo sapiens, SNU-449",> 8 µM
same,IC50,"SW1417; Homo sapiens, SW1417",> 8 µM
same,IC50,"SW1573; Homo sapiens, SW1573",> 8 µM
same,IC50,"SW1783; Homo sapiens, SW1783",> 8 µM
same,IC50,"SW-620; Homo sapiens, SW-620",> 8 µM
same,IC50,"SW756; Homo sapiens, SW756",> 8 µM
same,IC50,"SiHa; Homo sapiens, SiHa",> 8 µM
same,IC50,"8505C; Homo sapiens, 8505C",> 8 µM
same,IC50,"A 172; Homo sapiens, A 172",> 8 µM
same,IC50,"AN3-CA; Homo sapiens, AN3-CA",> 8 µM
same,IC50,"C-33-A; Homo sapiens, C-33-A",> 8 µM
same,IC50,"U-698-M; Homo sapiens, U-698-M",> 8 µM
same,IC50,"UO-31; Homo sapiens, UO-31",> 8 µM
same,IC50,"CAMA-1; Homo sapiens, CAMA-1",> 8 µM
same,IC50,"CAPAN-1; Homo sapiens, CAPAN-1",> 8 µM
same,IC50,"CHL-1; Homo sapiens, CHL-1",> 8 µM
BLEOMYCIN,IC50,COLO-792; colo-792,26.4 µM
same,IC50,COR-L23; cor-l23,0.0755 µM
same,IC50,EFO-21; efo-21,4.33 µM
same,IC50,EHEB; eheb,1.61 µM
same,IC50,HCC1937; hcc1937,0.000254 µM
same,IC50,HCT-116; hct-116,2.88 µM
same,IC50,HEC-1; hec-1,27.4 µM
same,IC50,Hs-578T; hs-578-t,344 µM
same,IC50,HuO-3N1; huo-3n1,87.8 µM
same,IC50,KYSE-180; kyse-180,3.8 µM
same,IC50,LN-405; ln-405,402 µM
same,IC50,MC-CAR; mc-car,1.4 µM
same,IC50,MCF7; mcf7,1.17 µM
same,IC50,MDA-MB-134-VI; mda-mb-134-vi,340 µM
same,IC50,MIA PaCa-2; mia paca-2,0.111 µM
same,IC50,MKN-28; mkn-28,0.00108 µM
same,IC50,NB1; nb1,11.6 µM
same,IC50,NCI-H187; nci-h187,8790 µM
same,IC50,NCI-H2347; nci-h2347,5.12 µM
same,IC50,NCI-H292; nci-h292,0.803 µM
same,IC50,NCI-H520; nci-h520,16.1 µM
same,IC50,NCI-H522; nci-h522,0.426 µM
same,IC50,NCI-H661; nci-h661,2.79 µM
same,IC50,NUGC-3; nugc-3,1.13 µM
same,IC50,PFSK-1; pfsk-1,33.4 µM
same,IC50,RCM-1; rcm-1,1.26 µM
same,IC50,RERF-LC-MS; rerf-lc-ms,48.7 µM
same,IC50,RL; rl,2270 µM
same,IC50,RPMI-7951; rpmi-7951,1.24 µM
same,IC50,SCC-9; scc-9,403 µM
same,IC50,SIG-M5; sig-m5,0.586 µM
same,IC50,SNU-423; snu-423,0.867 µM
same,IC50,SNU-449; snu-449,0.389 µM
same,IC50,SW1417; sw1417,249 µM
same,IC50,SW1573; sw1573,0.137 µM
same,IC50,SW1783; sw1783,0.249 µM
same,IC50,SW-620; sw-620,3.56 µM
same,IC50,SW756; sw756,11.4 µM
same,IC50,SiHa; siha,5170 µM
same,IC50,8505C; 8505c,1.04 µM
same,IC50,A 172; a 172,39.7 µM
same,IC50,AN3-CA; an3-ca,2.55 µM
same,IC50,C-33-A; c-33-a,0.432 µM
same,IC50,U-698-M; u-698-m,13 µM
same,IC50,UO-31; uo-31,0.934 µM
same,IC50,CAMA-1; cama-1,17.5 µM
same,IC50,CAPAN-1; capan-1,2.92 µM
same,IC50,CHL-1; chl-1,0.732 µM
O=C(O)c1ccc(-c2c[nH]c3ncc(-c4ccccc4)cc23)cc1C1CCCC1 [GSK-650394],IC50,"COLO-792; Homo sapiens, COLO-792",> 16 µM
same,IC50,"COR-L23; Homo sapiens, COR-L23",4.76 µM
same,IC50,"EFO-21; Homo sapiens, EFO-21",> 16 µM
same,IC50,"EHEB; Homo sapiens, EHEB",> 16 µM
same,IC50,"HCC1937; Homo sapiens, HCC1937",> 16 µM
same,IC50,"HCT-116; Homo sapiens, HCT-116",> 16 µM
same,IC50,"HEC-1; Homo sapiens, HEC-1",> 16 µM
same,IC50,"Hs-578T; Homo sapiens, Hs-578T",> 16 µM
same,IC50,"HuO-3N1; Homo sapiens, HuO-3N1",> 16 µM
same,IC50,"KYSE-180; Homo sapiens, KYSE-180",2.06 µM
same,IC50,"LN-405; Homo sapiens, LN-405",> 16 µM
same,IC50,"MC-CAR; Homo sapiens, MC-CAR",> 16 µM
same,IC50,"MCF7; Homo sapiens, MCF7",1.82 µM
same,IC50,"MDA-MB-134-VI; Homo sapiens, MDA-MB-134-VI",> 16 µM
same,IC50,"MIA PaCa-2; Homo sapiens, MIA PaCa-2",7.08 µM
same,IC50,"MKN-28; Homo sapiens, MKN-28",11.7 µM
same,IC50,"NB1; Homo sapiens, NB1",> 16 µM
same,IC50,"NCI-H187; Homo sapiens, NCI-H187",> 16 µM
same,IC50,"NCI-H2347; Homo sapiens, NCI-H2347",> 16 µM
same,IC50,"NCI-H292; Homo sapiens, NCI-H292",> 16 µM
same,IC50,"NCI-H520; Homo sapiens, NCI-H520",> 16 µM
same,IC50,"NCI-H522; Homo sapiens, NCI-H522",13 µM
same,IC50,"NCI-H661; Homo sapiens, NCI-H661",> 16 µM
same,IC50,"NUGC-3; Homo sapiens, NUGC-3",> 16 µM
same,IC50,"PFSK-1; Homo sapiens, PFSK-1",> 16 µM
same,IC50,"RCM-1; Homo sapiens, RCM-1",> 16 µM
same,IC50,"RERF-LC-MS; Homo sapiens, RERF-LC-MS",> 16 µM
same,IC50,"RL; Homo sapiens, RL",> 16 µM
same,IC50,"RPMI-7951; Homo sapiens, RPMI-7951",> 16 µM
same,IC50,"SCC-9; Homo sapiens, SCC-9",> 16 µM
same,IC50,"SIG-M5; Homo sapiens, SIG-M5",4.88 µM
same,IC50,"SNU-423; Homo sapiens, SNU-423",> 16 µM
same,IC50,"SNU-449; Homo sapiens, SNU-449",> 16 µM
same,IC50,"SW1417; Homo sapiens, SW1417",> 16 µM
same,IC50,"SW1573; Homo sapiens, SW1573",> 16 µM
same,IC50,"SW1783; Homo sapiens, SW1783",> 16 µM
same,IC50,"SW-620; Homo sapiens, SW-620",1.93 µM
same,IC50,"SW756; Homo sapiens, SW756",> 16 µM
same,IC50,"SiHa; Homo sapiens, SiHa",> 16 µM
same,IC50,"8505C; Homo sapiens, 8505C",7.78 µM
same,IC50,"A 172; Homo sapiens, A 172",> 16 µM
same,IC50,"AN3-CA; Homo sapiens, AN3-CA",7.66 µM
same,IC50,"C-33-A; Homo sapiens, C-33-A",8.53 µM
same,IC50,"U-698-M; Homo sapiens, U-698-M",> 16 µM
same,IC50,"UO-31; Homo sapiens, UO-31",> 16 µM
same,IC50,"CAMA-1; Homo sapiens, CAMA-1",> 16 µM
same,IC50,"CAPAN-1; Homo sapiens, CAPAN-1",> 16 µM
same,IC50,"CHL-1; Homo sapiens, CHL-1",3.5 µM
